Test results reported in patent publication US20250129104A1, “7H-PYRROLO[2,3-D]PYRIMIDINES AND PREPARATION AND USES THEREOF” (BioSplice Therapeutics, Inc., priority 2021, published 2025).

Target: recombinant DYRK1A kinase (Homo sapiens (Human), UniProt Q13627)
Assay: DYRK1A kinase assay (Ser/Thr 18 peptide Z-lyte FRET assay)
Type: biochemical
Details: DYRK1A kinase activity; 15 μM ATP, 1 h room temperature; method text calls the value IC50
Description: Representative compounds were screened using the assay procedure for DYRK1A kinase activity as described below.
Each compound was dissolved in DMSO as a 10 mM stock and used to prepare compound source plates. Serial dilution (1:3, 11-point dose-response curves from 10 μM to 0.00016 μM) and compound transfer was performed using the ECHO 550 (Labcyte, Sunnyvale, CA) into 1536-well black-walled round bottom plates (Corning).
The DYRK1A kinase assay was run using the Ser/Thr 18 peptide Z-lyte assay kit according to manufacturer's instructions (Life Technologies—a Division of Thermo-Fisher). This is a non-radioactive assay using fluorescence resonance energy transfer (FRET) between coumarin and fluorescein to detect kinase activity which is represented as a ratio of coumarin emission/fluorescein emission.
Briefly, recombinant DYRK1A kinase, ATP and Ser/Thr peptide 18 were prepared in 1× Kinase buffer to final concentrations of 0.25 μg/mL, 15 μM, and 4 μM respectively. The mixture was allowed to incubate with the representative compounds for one hour at room temperature. All reactions were performed in duplicate. Unphosphorylated (“0% Control”) and phosphorylated (“100% control”) forms of Ser/Thr 18 served as control reactions. Additionally, an 11-point dose-response curve of Staurosporine (1 uM top) was run to serve as a positive compound control.
After incubation, Development Reagent A was diluted in Development Buffer then added to the reaction and allowed to further incubate for one hour at room temperature. The plate was read at Ex 400 Em […] to detect the coumarin signal and Ex 400 Em 520 to measure the signal (EnVision Multilabel Plate Reader, PerkinElmer).
The Emission ratio (Em) was calculated as a ratio of the coumarin (C) emission signal (at 445 nm)/Fluorescein (F) emission signal (at 520 nm). The percent phosphorylation was then calculated using the following formula: [1−((Em ratio×F100%)−C100%)/((C0%−C100%)+(Em ratio×(F100%−F0%)))]. Dose-response curves were generated, and inhibitory concentration (IC50) values were calculated using non-linear regression curve fit in the Dotmatics' Studies Software (Bishops Stortford, UK).

EC50 [nM]	Compound
41.6	OCc1cnc2c(F)cc(-c3c[nH]c4nc(C5CC5)ncc34)cn12 [Compound 363, (6-(2-Cyclopropyl-7H-pyrrolo[2,3-d]pyrimidin-5-yl)-8-fluoroimidazo[1,2-a]pyridin-3-yl)methanol]
174	CN1CCC(c2cnc3c(F)cc(-c4c[nH]c5nc(C6CC6)ncc45)cn23)CC1 [Compound 403, 2-Cyclopropyl-5-(8-fluoro-3-(1-methylpiperidin-4-yl)imidazo[1,2-a]pyridin-6-yl)-7H-pyrrolo[2,3-d]pyrimidine]
9.5	C[C@H](Nc1ncc2c(-c3cnc4nccn4c3)c[nH]c2n1)C(F)(F)F [Compound 464, (S)-5-(Imidazo[1,2-a]pyrimidin-6-yl)-N-(1,1,1-trifluoropropan-2-yl)-7H-pyrrolo[2,3-d]pyrimidin-2-amine]
153	CC(C)(C)Cc1ncc2c(-c3cnc4nccn4c3)c[nH]c2n1 [Compound 490, 5-(Imidazo[1,2-a]pyrimidin-6-yl)-2-neopentyl-7H-pyrrolo[2,3-d]pyrimidine]
123	Cn1cc2cc(-c3c[nH]c4nc(NCC(C)(C)F)ncc34)ccc2n1 [Compound 492, N-(2-Fluoro-2-methylpropyl)-5-(2-methyl-2H-indazol-5-yl)-7H-pyrrolo[2,3-d]pyrimidin-2-amine]
4700	Cc1nc2c(F)cc(-c3c[nH]c4nc(NCC5CN(C)C5)ncc34)cc2n1C [Compound 493, 5-(4-Fluoro-1,2-dimethyl-1H-benzo[d]imidazol-6-yl)-N-((1-methylazetidin-3-yl)methyl)-7H-pyrrolo[2,3-d]pyrimidin-2-amine]
227	Cc1nc2c(F)cc(-c3c[nH]c4nc(N5CCC5)ncc34)cc2n1C(C)C [Compound 494, 2-(Azetidin-1-yl)-5-(4-fluoro-1-isopropyl-2-methyl-1H-benzo[d]imidazol-6-yl)-7H-pyrrolo[2,3-d]pyrimidine]
1.7	Cc1nc2c(F)cc(-c3c[nH]c4nc(NCC(C)C)ncc34)cc2n1C(C)C [Compound 506, 5-(4-Fluoro-1-isopropyl-2-methyl-1H-benzo[d]imidazol-6-yl)-N-isobutyl-7H-pyrrolo[2,3-d]pyrimidin-2-amine]
8.5	Cc1nc2c(F)cc(-c3c[nH]c4nc(NCC5(F)CCCCC5)ncc34)cc2n1C(C)C [Compound 526, 5-(4-Fluoro-1-isopropyl-2-methyl-1H-benzo[d]imidazol-6-yl)-N-((1-fluorocyclohexyl)methyl)-7H-pyrrolo[2,3-d]pyrimidin-2-amine]
9.3	Cc1nc2c(F)cc(-c3c[nH]c4nc(NCC5CCN(C)CC5)ncc34)cc2n1C(C)C [Compound 529, 5-(4-Fluoro-1-isopropyl-2-methyl-1H-benzo[d]imidazol-6-yl)-N-((1-methylpiperidin-4-yl)methyl)-7H-pyrrolo[2,3-d]pyrimidin-2-a]
40.8	Cc1nc2cc(F)c(-c3c[nH]c4nc(C5CC5)ncc34)cc2n1C(C)C [Compound 539, 2-Cyclopropyl-5-(5-fluoro-1-isopropyl-2-methyl-1H-benzo[d]imidazol-6-yl)-7H-pyrrolo[2,3-d]pyrimidine]
25.5	Cc1nc2ccc(-c3c[nH]c4nc(C5CC5)ncc34)c(F)c2n1C(C)C [Compound 540, 2-Cyclopropyl-5-(7-fluoro-1-isopropyl-2-methyl-1H-benzo[d]imidazol-6-yl)-7H-pyrrolo[2,3-d]pyrimidine]
17.9	Cc1nc2ncc(-c3c[nH]c4nc(CC(C)C)ncc34)cc2n1C(C)C [Compound 585, 6-(2-Isobutyl-7H-pyrrolo[2,3-d]pyrimidin-5-yl)-1-isopropyl-2-methyl-1H-imidazo[4,5-b]pyridine]
5.6	Cc1nc2ncc(-c3c[nH]c4nc(NCC(C)C)ncc34)cc2n1C(C)C [Compound 594, N-Isobutyl-5-(1-isopropyl-2-methyl-1H-imidazo[4,5-b]pyridin-6-yl)-7H-pyrrolo[2,3-d]pyrimidin-2-amine]
71.3	Cc1nc2cnc(-c3c[nH]c4ncncc34)cc2n1C(C)C [Compound 627, 1-Isopropyl-2-methyl-6-(7H-pyrrolo[2,3-d]pyrimidin-5-yl)-1H-imidazo[4,5-c]pyridine]
789	Cc1nc2cnc(-c3c[nH]c4nc(C5CCC5)ncc34)cc2n1C(C)C [Compound 628, 6-(2-Cyclobutyl-7H-pyrrolo[2,3-d]pyrimidin-5-yl)-1-isopropyl-2-methyl-1H-imidazo[4,5-c]pyridine]

EC50 [nM]	Compound
42.8	Cc1nc2ccc(-c3c[nH]c4nc(NCC(C)(C)F)ncc34)nc2n1CC(F)F [Compound 643, 5-(3-(2,2-Difluoroethyl)-2-methyl-3H-imidazo[4,5-b]pyridin-5-yl)-N-(2-fluoro-2-methylpropyl)-7H-pyrrolo[2,3-d]pyrimidin-2-amine]
1.5	Cc1nc2ccc(-c3c[nH]c4nc(C5CC5)ncc34)nc2n1C(C)C [Compound 676, 5-(2-Cyclopropyl-7H-pyrrolo[2,3-d]pyrimidin-5-yl)-3-isopropyl-2-methyl-3H-imidazo[4,5-b]pyridine]
415	CC(C)(C)Nc1ncc2c(-c3ccc4ncnn4c3)c[nH]c2n1 [Compound 718, 5-([1,2,4]Triazolo[1,5-a]pyridin-6-yl)-N-(tert-butyl)-7H-pyrrolo[2,3-d]pyrimidin-2-amine]
200	c1nc2ccc(-c3c[nH]c4nc(C5CC5)ncc34)cn2n1 [Compound 720, 6-(2-Cyclopropyl-7H-pyrrolo[2,3-d]pyrimidin-5-yl)-[1,2,4]triazolo[1,5-a]pyridine]
852	c1nc2ccc(-c3c[nH]c4nc(C5CCC5)ncc34)cn2n1 [Compound 721, 6-(2-Cyclobutyl-7H-pyrrolo[2,3-d]pyrimidin-5-yl)-[1,2,4]triazolo[1,5-a]pyridine]
48.1	CC(C)(C)CNc1ncc2c(-c3ccc4ncnn4c3)c[nH]c2n1 [Compound 728, 5-([1,2,4]Triazolo[1,5-a]pyridin-6-yl)-N-neopentyl-7H-pyrrolo[2,3-d]pyrimidin-2-amine]
23	FC(F)(F)CNc1ncc2c(-c3ccc4ncnn4c3)c[nH]c2n1 [Compound 733, 5-([1,2,4]Triazolo[1,5-a]pyridin-6-yl)-N-(2,2,2-trifluoroethyl)-7H-pyrrolo [2,3-d]pyrimidin-2-amine]
78.7	C[C@H](Nc1ncc2c(-c3ccc4ncnn4c3)c[nH]c2n1)C(F)(F)F [Compound 735, (S)-5-([1,2,4]Triazolo[1,5-a]pyridin-6-yl)-N-(1,1,1-trifluoropropan-2-yl)-7H-pyrrolo[2,3-d]pyrimidin-2-amine]
45.8	FC(F)(F)CCNc1ncc2c(-c3ccc4ncnn4c3)c[nH]c2n1 [Compound 736, 5-([1,2,4]Triazolo[1,5-a]pyridin-6-yl)-N-(3,3,3-trifluoropropyl)-7H-pyrrolo [2,3-d]pyrimidin-2-amine]
1.9	FC(F)(CNc1ncc2c(-c3ccc4ncnn4c3)c[nH]c2n1)C1CC1 [Compound 743, 5-([1,2,4]Triazolo[1,5-a]pyridin-6-yl)-N-(2-cyclopropyl-2,2-difluoroethyl)-7H-pyrrolo[2,3-d]pyrimidin-2-amine]
4.5	CN1CCN(c2cc(Nc3ncc4c(-c5ccc6ncnn6c5)c[nH]c4n3)ccn2)CC1 [Compound 755, 5-([1,2,4]Triazolo[1,5-a]pyridin-6-yl)-N-(2-(4-methylpiperazin-1-yl)pyridin-4-yl)-7H-pyrrolo[2,3-d]pyrimidin-2-amine]
76.3	CC(C)(F)CNc1ncc2c(-c3cc(F)c4ncnn4c3)c[nH]c2n1 [Compound 774, N-(2-Fluoro-2-methylpropyl)-5-(8-fluoro-[1,2,4]triazolo[1,5-a]pyridin-6-yl)-7H-pyrrolo[2,3-d]pyrimidin-2-amine]
72.1	CC(C)Nc1ncc2c(-c3ccn4ncnc4c3)c[nH]c2n1 [Compound 804, 5-([1,2,4]Triazolo[1,5-a]pyridin-7-yl)-N-isopropyl-7H-pyrrolo[2,3-d]pyrimidin-2-amine]
18.8	C[C@@H](Nc1ncc2c(-c3ccn4ncnc4c3)c[nH]c2n1)C(F)(F)F [Compound 806, (R)-5-([1,2,4]Triazolo[1,5-a]pyridin-7-yl)-N-(1,1,1-trifluoropropan-2-yl)-7H-pyrrolo[2,3-d]pyrimidin-2-amine]
165	C[C@H](Nc1ncc2c(-c3ccn4ncnc4c3)c[nH]c2n1)C(F)(F)F [Compound 807, (S)-5-([1,2,4]Triazolo[1,5-a]pyridin-7-yl)-N-(1,1,1-trifluoropropan-2-yl)-7H-pyrrolo[2,3-d]pyrimidin-2-amine]
52.3	CN1CCN(c2ccc(CNc3ncc4c(-c5ccn6ncnc6c5)c[nH]c4n3)cn2)CC1 [Compound 808, 5-([1,2,4]Triazolo[1,5-a]pyridin-7-yl)-N-((6-(4-methylpiperazin-1-yl)pyridin-3-yl)methyl)-7H-pyrrolo[2,3-d]pyrimidin-2-amine]
